Laboratory results: PMC8512560, “Design, Synthesis, and Antipoliferative Activities of Novel Substituted Imidazole-Thione Linked Benzotriazole Derivatives” (Molecules, 2021)
Several values for one entry are separate records, joined by “and”; a condition that tells them apart may be missing. Equal entries are not always repeated. Where two headings read alike, the source gives them in different places.

How the values were obtained:
[1] = test system: HL-60 human leukemia cancer cell line; assay: MTT viability assay, HL-60; type: cell-based; conditions: mean ± SD of three independent experiments, read-out: Antiproliferative Activities IC50, HL-60
Description: (§1) All the human tumour cell lines MCF-7, HL-60, HCT-116, and HUVEC were cultured in Dulbecco’s Modified Eagle’s Medium (DMEM) with 10% fetal bovine serum, 2 mM L-glutamine and 100 µg/mL penicillin/streptomycin. Cells were maintained at 37 °C in 5% CO2 in a humidified incubator. All cells were sub-cultured three times/week by trypsinization using TrypLE Express (1X).
(§2) The Benzotriazole compounds were evaluated for antiproliferative effect using the MTT viability assay of various cancer cell lines (MCF-7, HCT-116 and HL-60) and the normal human umbilical vein endothelial cell line (HUVEC) to calculate the relative IC50 values for each compound. Cells were seeded in triplicate in 96-well plates at a density of 10 × 10^3 cells/mL in a total volume of 200 µL per well. 0.1% of DMSO was used as a vehicle control. After this time, they were treated with 2 µL test compound which had been pre-prepared as stock solutions in ethanol to furnish the concentration range of study, 10 nM to 100 µM, and re-incubated for a further 72 h. The culture medium was then removed, and the cells washed with 100 µL phosphate buffered saline (PBS) and 50 µL MTT added, to reach a final concentration of 1 mg/mL MTT added. Cells were incubated for 2 h in darkness at 37 °C. At this point solubilisation was begun through the addition of […] DMSO and the cells maintained at room temperature in darkness for 20 min to ensure thorough colour diffusion before reading the absorbance. Plates were incubated for 72 h at 37 °C + 5% CO2. The MTT (5 mg/mL in PBS) was added and incubated for another 4 h, and the optical density was detected with a microplate reader at 570 nm. Results were expressed as percentage viability relative to vehicle control (100%). Dose response curves were plotted and IC50 values (concentration of drug resulting in 50% reduction in cell survival) were obtained using the commercial software package Prism (GraphPad Software, Inc., La Jolla, CA, USA). All the experiments were repeated in at least three independent experiments.

[2] = test system: HCT-116 human colon cancer cell line; assay: MTT viability assay, HCT-116; type: cell-based; conditions: mean ± SD of three independent experiments, read-out: Antiproliferative Activities IC50, HCT-116
Description: as §1, §2

[3] = test system: HUVEC human umbilical vein endothelial cell line; assay: MTT viability assay, normal HUVEC cells; type: cell-based; conditions: 72 h, mean ± SD of three independent experiments
Description: as §1, §2

[4] = test system: MCF-7, HL-60 and HCT-116 cancer cell lines; assay: MTT viability assay, values pooled over the cancer cell lines; type: cell-based, human; conditions: for IC50: Homo sapiens, MTT; for Fold more active than methyl-containing derivative BI2 (antiproliferative): relative to BI2, cell line not specified
Description: as §1, §2

[5] = test system: MCF-7 human breast cancer cell line; assay: MTT viability assay, MCF-7; type: cell-based; conditions: mean ± SD of three independent experiments, read-out: Antiproliferative Activities IC50, MCF-7
Description: as §1, §2

bovine brain tubulin = assay: Tubulin polymerization assay (turbidimetric, kit BK006); type: biochemical; conditions: read-out: Anti-Tubulin Activity IC50 ± SD (inhibition of tubulin polymerization)
Description: The assembly of purified bovine tubulin was monitored using a kit, BK006, purchased from Cytoskeleton Inc., (Denver, CO, USA). The assay was carried out in accordance with the manufacturer’s instructions using the standard assay conditions. Briefly, purified ([…]) in a buffer consisting of 80 mM PIPES (pH 6.9), 0.5 mM EGTA, 2 mM MgCl2, 1 mM GTP and 10% glycerol was incubated at 37 °C in the presence of either vehicle (2% (v/v) ddH2O), CA-4, benzotriazole compounds. Light was scattered proportionally to the concentration of polymerized microtubules in the assay. Therefore, the tubulin assembly was monitored turbidimetrically at 340 nm in a Spectramax 340 PC spectrophotometer (Molecular Devices, Sunnyvale, CA, USA). The concentration that inhibits tubulin polymerization by 50% (IC50) was determined using area under the curve (AUC). The AUC of the untreated controls were considered as 100% polymerization. The IC50 value for each compound was computed using GraphPad Prism Software.

[6] = test system: colchicine binding site of tubulin; assay: Colchicine site competitive binding assay ([3H]colchicine); conditions: tubulin and colchicine at 1 and 5 µM
Description: The affinity of Benzotriazole compounds to colchicine binding site was determined using a Colchicine Site Competitive Assay kit CytoDYNAMIX Screen15 (Cytoskeleton, Inc., Denver, CO, USA) using the standard protocol of the manufacturer to determine Ki values (μM). Biotin-labelled tubulin ([…]) and the test compounds (positive control colchicine, negative control vinblastine, G-1, fluorescent G-1, or 2-ME) in a 96-well plate (final volume: 100 μL). After incubating for 2 h at 37 °C with gentle shaking, streptavidin-labelled yttrium SPA beads (80 μg in 20 μL reaction buffer, PerkinElmer, Waltham, MA) were added to each well and incubated for 30 min at 4 °C. The plates were then read on a scintillation counter (Packard Instrument, Topcount Microplate Reader) and the percentage of inhibition was calculated.

[7] = MCF-7, HL-60 and HCT-116, read-out: IC50 values range over the three cancer cell lines
[8] = HL-60 and HCT-116 only, read-out: IC50 values range versus HL-60 and HCT-116 cells

IC50 ([1]; Homo sapiens, HL-60, 72 h) [µM]	IC50 ([2]; Homo sapiens, HCT-116, 72 h) [µM]	IC50 [4, 7] [µM]	IC50 ([5]; Homo sapiens, MCF7, 72 h) [µM]	melting point [°C]	IC50 (bovine brain tubulin)	IC50 [4, 8] [µM]	Colchicine Binding % ± SD (inhibition of [3H]colchicine binding), 1 µM Drug [6] [%]	Colchicine Binding % ± SD (inhibition of [3H]colchicine binding), 5 µM Drug [6] [%]	IC50 ([1]; 72 h) [µM]	IC50 ([2]; 72 h) [µM]	IC50 ([5]; 72 h) [µM]	SMILES	IC50 [3] [µM]	Fold more active than methyl-containing derivative BI2 (antiproliferative) [4] [fold]
37.1 ± 2.54	14.8 ± 0.95	> 10	12.5 ± 0.36	178 to 180								Cc1ccc(-n2cc(-n3nnc4ccccc43)[nH]c2=S)cc1 [BI2, 4-(1H-Benzo[d][1,2,3]Triazol-1-yl)-1-(4-Methylphenyl)-1H-Imidazole-2(3H)-Thione]	12.2 ± 0.58	
5.23 ± 0.36	17.5 ± 1.13		6.4 ± 0.18	175 to 177								S=c1[nH]c(-n2nnc3ccccc32)cn1-c1ccccc1 [BI1, 4-(1H-Benzo[d][1,2,3]Triazol-1-yl)-1-Phenyl-1H-Imidazole-2(3H)-Thione]	63 ± 3.02	
3.28 ± 0.22	1.51 ± 0.12	1.51 to 7.29	7.29 ± 0.21	187 to 189	928 ± 30 nM	1.51 to 7.38	63.23 ± 2	77.63 ± 2				S=c1[nH]c(-n2nnc3ccccc32)cn1-c1ccc(Cl)cc1 [BI6, 4-(1H-Benzo[d][1,2,3]Triazol-1-yl)-1-(4-Chlorophenyl)-1H-Imidazole-2(3H)-Thione]	27.4 ± 1.31	
1.1	2.1	1.51 to 15.5	4.4	267 to 269	490 nM and 497 nM		61.78 ± 2	81.34 ± 2	1.18 ± 0.08	2.15 ± 0.14	4.45 ± 0.13	Oc1ccc(-n2cc(-n3nnc4ccccc43)[nH]c2=S)cc1 [BI5, 4-(1H-Benzo[d][1,2,3]Triazol-1-yl)-1-(4-Hydroxyphenyl)-1H-Imidazole-2(3H)-Thione]	4.74 ± 0.23	
3.42 ± 0.23	7.38 ± 0.48		15.5 ± 0.44	180 to 182	840 ± 20 nM	1.51 to 7.38	61.18 ± 2	79.95 ± 2				S=c1[nH]c(-n2nnc3ccccc32)cn1-c1ccccc1Cl [BI7, 4-(1H-Benzo[d][1,2,3]Triazol-1-yl)-1-(2-Chlorophenyl)-1H-Imidazole-2(3H)-Thione]	17.3 ± 0.35	
0.9 ± 0.06	7.83 ± 0.5		6.1 ± 0.75	217 to 219	784 ± 20 nM		64.67 ± 2	80.26 ± 2				NS(=O)(=O)c1ccc(-n2cc(-n3nnc4ccccc43)[nH]c2=S)cc1 [BI12, 4-(4-(1H-Benzo[d][1,2,3]Triazol-1-yl)-2-Thioxo-2,3-Dihydro-1H-Imidazol-1-yl)Benzenesulfonamide]	25.1 ± 1.2	
				196 to 198								Fc1ccccc1N1CC(n2nnc3ccccc32)=NC1=S [BI10, 4-(1H-Benzo[d][1,2,3]Triazol-1-yl)-1-(2-Florophenyl)-1H-Imidazole-2(3H)-Thione]		
3.91 ± 0.27	2.75 ± 0.18		10.6 ± 0.31	150 to 152	928 ± 40 nM		65.38 ± 2	86.85 ± 2				CCc1ccc(-n2cc(-n3nnc4ccccc43)[nH]c2=S)cc1 [BI3, 4-(1H-Benzo[d][1,2,3]Triazol-1-yl)-1-(4-Ethylphenyl)-1H-Imidazole-2(3H)-Thione]	> 100	3.8
11.5 ± 0.11	17.4 ± 1.12	11.5 to 38.2	38.2 ± 1.09	267 to 269								S=c1[nH]c(-n2nnc3ccccc32)cn1-c1ccc(Br)cc1 [BI11, 4-(1H-Benzo[d][1,2,3]Triazol-1-yl)-1-(4-Bromophenyl)-1H-Imidazole-2(3H)-Thione]	47.8 ± 2.29	
5.12 ± 0.35	2.1 ± 0.14	1.51 to 15.5	2.66 ± 0.08	120 to 122	3050 nM	1.51 to 7.38	59.74± 2	82.13 ± 2				S=c1[nH]c(-n2nnc3ccccc32)cn1-c1cccc(Cl)c1 [BI8, 4-(1H-Benzo[d][1,2,3]Triazol-1-yl)-1-(3-Chlorophenyl)-1H-Imidazole-2(3H)-Thione]	39.8 ± 1.91	
22.1 ± 1.52			2.29 ± 0.07	175 to 177								COc1ccc(-n2cc(-n3nnc4ccccc43)[nH]c2=S)cc1 [BI4, 4-(1H-Benzo[d][1,2,3]Triazol-1-yl)-1-(4-Methoxyphenyl)-1H-Imidazole-2(3H)-Thione]	> 100	2.5
